# Results taken from patent US20260199301A1, “PHENYL-PYRAZOLO[3,4-B]PYRIDINE-4-CARBOXYLIC ACID DERIVATES FOR USE AS 5-ALPHA REDUCTASE ANTAGONISTS IN METHODS OF TREATMENT” (UNIVERSITY OF CAPE TOWN, priority 2022, published 2026).
# Read-outs that look alike come from different tables or passages of the source.
# Assays:
# [1] = Solubility, miniaturised shake-flask method; format: physicochemical; conditions: aqueous buffer, thermodynamic from solid, pH 7.4 as headed, phosphate buffer, 25° C.
# Description: […] Briefly, 4 μl of a 10 mM stock in DMSO was added to a 96-well plate and evaporated using a GeneVac system. […] At the end of this incubation, the samples were centrifuged at 3500 g for 15 min then transferred to an analysis plate. A calibration curve in DMSO for each sample between 10-220 μM was prepared and included in the analysis plate. Analysis was then performed by LC-MS (Agilent Rapid Resolution HPLC, AB SCIEX 4500 MS) and solubility of each sample determined from the corresponding calibration curve.
# SRD5A2 gene [2] = assay: qPCR relative expression of SRD5A2 gene in HEK293 cell line; format: cell-based, human; conditions: for relative expression of the SRD5A2 gene increased: HEK293, 24 hours at IC50 (finasteride 1.34 nM, dutasteride 1.29 μM, Bsy1 0.02 nM)
# Description: (§1) The DU-145 cell lines and HEK293 cell lines were grown to 70% confluence in DMEM supplemented with 10% (v/v) fetal bovine serum and 1% antibiotic (100 μg/mL of streptomycin and 100 unit/mL of penicillin (P/S) at 37° C. in a 5% CO2 environment.
# Experiments were repeated three times.]
# The two-way ANOVA compared the expression levels of the SRD5A genes and between the different drugs in HEK293 cell lines (FIG. 6 B). […] Data were expressed for each bar as means±standard error of mean ****P≤0.0001 from control.
# SRD5A2 gene [3] = assay: qPCR relative expression of SRD5A2 gene in DU-145 cell line; format: cell-based, human; conditions: DU-145, 24 hours at IC50 (finasteride 0.9 nM, dutasteride 1.6 μM, Bsy1 0.0054 nM)
# Description: as §1
# (§2) The androgen-independent DU-145 cell line, treated with finasteride (0.9 nM), dutasteride (1.6 μM), and Bsy1 (0.0054 nM) for 24 hours, was measured for their SRD5A gene regulation using qPCR. […] The relative expression of the SRD5A2 gene was reduced by approximately 3-fold for finasteride and dutasteride and 2-fold for Bsy1 (FIG. 5A). However, it should be noted that the finasteride concentrations were 100-fold, and dutasteride 1000-fold, higher than the concentration of Bsy1. […] The level of inhibitory action against SRD5A1 and SRD5A2 is surprising as it is expected that that the phenyl-pyrazolo[3,4-b]pyridine-4-carboxylic acid Bsy1 and its derivates, as described herein, will show similar inhibition results. […] Experiments were repeated three times.]
# (§3) A two-way ANOVA statistical analysis was conducted to compare the gene suppression levels of each drug treatment against the control (untreated), using Dunnett's correction test (DCT) (FIG. 5B). [FIG. 5B—two-way ANOVA Dunnett test of the Control vs Treatment at IC50 values. Comparison tests of control vs. drug treatment at p<0.05 for: SRD5A1 (ns); SRD5A2**; SRD5A3 (ns). […]
# DU-145 cell line = assay: MTT assay IC50 in DU-145 cell line; format: cell-based, human; conditions: called antagonist activity against SRD5A2
# Description: as §1
# (§4) The half maximal inhibitory concentration (IC50) was established in the selected cell lines. The cell lines previously identified as having high endogenous expression levels of SRD5A2 were used to determine the in-vitro cytotoxic effects of Bsy1 on DU-145 and HEK293. The results were compared with the comparative compounds finasteride and dutasteride. The cytotoxic concentration and cell viability of these drugs were evaluated using the 3-(4,5-dimethylthiazol-2-yl)-2,5-diphenyl-2H-tetrazolium bromide (“MTT”) assay, using the comparative compounds as positive controls.
# (§5) The study seeded cells at 1×10^4 cells/well density using a 96-well plate and incubated them for 24 hours to allow the cells to attach in a 5% CO2 incubator at 37° C. Different serial concentrations of the compounds treated the cells, 1% (v/v) DMSO/methanol in DMEM treated the control cells, and DMEM only served as a blank. Cells were stained with 100 μl of a 0.5 mg/ml MTT solution and incubated in a 5% CO2 atmosphere at 37° C. incubators for 4 hours. The medium was aspirated, and 100 μl of absolute ethanol was added to each well. The formation of […] measured all growth and chemosensitivity. Absorbance was detected spectrophotometrically at 570 nm using a reference wavelength of 630 nm. The experiments were performed in triplicate.
# (§6) The dose-response from the non-linear curve (inhibitor vs normalised response—variable slope curve), plotted using GraphPad Prism V 9.3.1, was used to determine the IC50 values of these cells.
# The study determined the ICs values using a non-linear curve fit with a hyperbola model (FIG. 3).
# [4] = system: HEK293 and DU-145 cell lines; assay: Selectivity index from ratio of IC50 values, normal cells vs cancer cells; format: cell-based, human; conditions: normal cells (HEK293) vs cancer cells (DU-145)
# Description: The selectivity index, indicating the selectivity of a given compound between normal cells and cancer cells, was calculated from the ratio of their respective IC50 values (Equation 1).
# HEK293 cell line = assay: MTT assay IC50 in HEK293 cell line; format: cell-based, human
# Description: as §1, §4, §5, §6
# However, the IC50 values for Bsy1 in the HEK293 cell lines were higher than in the DU-145 cells.
# [5] = Plasma protein binding by ultracentrifugation; format: in vitro ADME; conditions: mouse, read-out: Mouse PPB (converted)
# [6] = Mouse hepatocyte stability
# Description: (§7) Hepatocyte stability was performed using a 5-point assay design using cryopreserved hepatocytes in suspension. Briefly, the compounds (1 μM) were incubated at 37° C. in human (Hepatosure 100-donor pool, XenoTech LLC) and mouse (Cryostax mouse CD1, XenoTech LLC) hepatocytes (500,000 cells/ml) for various timepoints over 120 min. Reactions were quenched by adding ice-cold acetonitrile containing internal standard. The samples were then centrifuged, and the samples analysed by LC-MS/MS (Agilent Rapid Resolution HPLC, AB SCIEX 4500 MS) for the disappearance of parent compound. Half-life, clearance and hepatic excretion ratios were determined using standard equations.
# (§8) The CLint,app value can be used to calculate a predicted in vivo value by factoring in scaling factors (number of hepatocytes per gram of liver and grams of liver per kg body weight) and binding (measured plasma protein binding and estimated incubational binding). The predicted mouse and human clearance values represent the total hepatic clearances that would be expected for these compounds in vivo.
# [7] = Human hepatocyte stability
# Description: as §7, §8
# SRD5A1 gene = assay: qPCR relative expression of SRD5A1 gene in DU-145 cell line; format: cell-based, human; conditions: DU-145, 24 hours at IC50 values
# Description: as §1, §2, §3
# SRD5A2 = target: T1, SRD5A2 (Homo sapiens, UniProt P31213); conditions: cited from earlier work
# T1 sequence (P31213 1-254): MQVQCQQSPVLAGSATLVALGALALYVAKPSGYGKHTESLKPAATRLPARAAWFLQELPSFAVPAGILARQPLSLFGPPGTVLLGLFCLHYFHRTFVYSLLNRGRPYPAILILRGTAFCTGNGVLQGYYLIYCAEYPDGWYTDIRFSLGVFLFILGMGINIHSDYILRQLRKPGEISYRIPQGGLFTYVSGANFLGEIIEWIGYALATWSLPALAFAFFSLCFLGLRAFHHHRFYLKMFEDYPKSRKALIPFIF
# in vitro [8] = conditions: CD1, mouse, hepatocytes
# Description: as §7, §8
# [9] = CD1, mouse, 1 μM
# Description: as §7, §8
# [10] = 1 μM
# Description: as §7, §8
# in vitro [11] = conditions: human, hepatocytes
# Description: as §7, §8
# [12] = Homo sapiens, DU-145, DU-145 cell line
# [13] = Homo sapiens, HEK293, HEK293 cell line, called antagonist activity against SRD5A2, read-out: IC50
structure (smiles),measurement,setting,value
"O=C1C=C(C(=O)O)C2C(C3CC3)=NN(c3ccccc3F)C2N1 (centres unmarked) [Bsy4, 3-cyclopropyl-1-(2-fluorophenyl)-6-oxo-3a,6,7,7a-tetrahydro-1H-pyrazolo[3,4-b]pyridine-4-carboxylic acid]",solubility at 24 h,[1],> 200 µM
"O=C1C=C(C(=O)O)C2C(C3CC3)=NN(c3ccc(Br)cc3)C2N1 (centres unmarked) [Bsy2, 1-(4-bromophenyl)-3-cyclopropyl-6-oxo-3a,6,7,7a-tetrahydro-1H-pyrazolo[3,4-b]pyridine-4-carboxylic acid]",solubility at 24 h,[1],195 µM
C[C@]12C=CC(=O)N[C@@H]1CC[C@@H]1[C@@H]2CC[C@]2(C)[C@@H](C(=O)Nc3cc(C(F)(F)F)ccc3C(F)(F)F)CC[C@@H]12 [Dutasteride],relative expression of the SRD5A2 gene increased,SRD5A2 gene [2],approximately 2 fold
same,relative expression of the SRD5A2 gene reduced,SRD5A2 gene [3],approximately 3 fold
same,IC50,DU-145 cell line; DU-145 cell line,1670 ± 1850 nM
same,IC50,DU-145 cell line; [12],1600 nM
same,SELECTIVITY INDEX,[4],0.81
same,IC50,"HEK293 cell line; HEK293 cell line, called antagonist activity against SRD5A2",1210 ± 1370 nM
same,IC50,"HEK293 cell line; Homo sapiens, HEK293, HEK293 cell line, called antagonist activity against SRD5A2",1290 nM
"COc1ccc(N2N=C(C3CC3)C3C(C(=O)O)=CC(=O)NC32)cc1 (centres unmarked) [Bsy6, 3-cyclopropyl-1-(4-methoxyphenyl)-6-oxo-3a,6,7,7a-tetrahydro-1H-pyrazolo[3,4-b]pyridine-4-carboxylic acid]",solubility at 24 h,[1],120 µM
"O=C1C=C(C(=O)O)C2C(C3CC3)=NN(c3ccc(F)cc3)C2N1 (centres unmarked) [Bsy1, 3-cyclopropyl-1-(4-fluorophenyl)-6-oxo-3a,6,7,7a-tetrahydro-1H-pyrazolo[3,4-b]pyridine-4-carboxylic acid]","fraction unbound at 4 h, 10 μM",[5],0.95
same,relative expression of the SRD5A2 gene increased,SRD5A2 gene [2],approximately 2 fold
same,hepatocyte CLint at 1 μM,"[6]; CD1, mouse, cryopreserved hepatocytes in suspension",< 6.4 µL/min/1e6 cells
same,hepatic clearance classification,"[6]; mouse, predicted clearance below 30% of liver blood flow 126 ml/min/kg",low hepatic clearance
same,Predicted mouse Clearance,"[6]; scaled from mouse hepatocyte CLint,app",<13.8 mL/min/kg
same,IC50,DU-145 cell line; DU-145 cell line,5400 nM
same,hepatocyte CLint at 1 μM,"[7]; human, cryopreserved hepatocytes in suspension",4.1 µL/min/1e6 cells
same,hepatic clearance classification,"[7]; human, predicted clearance below 30% of liver blood flow 20.7 ml/min/kg",low hepatic clearance
same,Predicted human Clearance,"[7]; scaled from human hepatocyte CLint,app",6.7 mL/min/kg
same,SRD5A1 suppression,SRD5A1 gene,comparable
same,solubility at 24 h,[1],> 200 µM
same,SELECTIVITY INDEX,[4],3.7
same,IC50,HEK293 cell line; [13],0.02 nM
"O=C1C=C(C(=O)O)C2C(C3CC3)=NN(c3cccc(F)c3)C2N1 (centres unmarked) [Bsy5, 3-cyclopropyl-1-(3-fluorophenyl)-6-oxo-3a,6,7,7a-tetrahydro-1H-pyrazolo[3,4-b]pyridine-4-carboxylic acid]",solubility at 24 h,[1],> 200 µM
"O=C1C=C(C(=O)O)C2C(C3CC3)=NN(c3ccc(Cl)cc3)C2N1 (centres unmarked) [Bsy3, 1-(4-chlorophenyl)-3-cyclopropyl-6-oxo-3a,6,7,7a-tetrahydro-1H-pyrazolo[3,4-b]pyridine-4-carboxylic acid]",solubility at 24 h,[1],190 µM
CC(C)(C)NC(=O)[C@H]1CC[C@H]2[C@@H]3CC[C@H]4NC(=O)C=C[C@]4(C)[C@H]3CC[C@]12C [Finasteride],"fraction unbound at 4 h, 10 μM",[5],0.27
same,relative expression of the SRD5A2 gene increased,SRD5A2 gene [2],~0.75 fold
same,"SRD5A2 expression, drug treatment vs untreated, two-way ANOVA Dunnett test","SRD5A2 gene [2]; HEK293, IC50 values",ns
same,selectivity for SRD5A2 than SRD5A1,SRD5A2,100 fold
same,hepatocyte CLint at 1 μM,in vitro [8],13.8 µL/min/1e6 cells
same,relative expression of the SRD5A2 gene reduced,SRD5A2 gene [3],approximately 3 fold
same,IC50,DU-145 cell line; DU-145 cell line,0.72 ± 1.09 nM
same,IC50,DU-145 cell line; [12],0.9 nM
same,Predicted mouse Clearance,[9],10.6 mL/min/kg
same,Predicted human Clearance,[10],3.3 mL/min/kg
same,SRD5A1 suppression,SRD5A1 gene,comparable
same,hepatocyte CLint at 1 μM,in vitro [11],4.5 µL/min/1e6 cells
same,solubility at 24 h,[1],> 200 µM
same,SELECTIVITY INDEX,[4],1.49
same,IC50,"HEK293 cell line; HEK293 cell line, called antagonist activity against SRD5A2, read-out: IC50",1.24 ± 1.43 nM
same,IC50,HEK293 cell line; [13],1.34 nM
